Tests used:
[1] = molecular target: T1, trypsin-activated recombinant human renin (Homo sapiens, UniProt P00797); assay: In vitro renin inhibition, fluorescence of internally quenched peptide substrate; assay type: biochemical; conditions: pH 7.0, rt
T1 sequence (P00797 67-406): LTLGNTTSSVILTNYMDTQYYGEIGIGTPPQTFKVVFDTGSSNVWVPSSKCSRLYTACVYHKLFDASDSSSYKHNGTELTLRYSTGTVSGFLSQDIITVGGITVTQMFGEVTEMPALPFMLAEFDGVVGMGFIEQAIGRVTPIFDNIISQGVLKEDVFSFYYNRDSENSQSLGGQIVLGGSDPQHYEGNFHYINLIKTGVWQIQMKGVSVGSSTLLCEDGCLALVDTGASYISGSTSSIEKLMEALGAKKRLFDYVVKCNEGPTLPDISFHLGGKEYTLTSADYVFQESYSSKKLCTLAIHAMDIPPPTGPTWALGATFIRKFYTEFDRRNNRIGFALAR
Experimental: The sequence of this peptide corresponds to the sequence of human angiotensinogen. The following test protocol was used. All reactions were carried out in a flat bottom white opaque microtiter plate. A 4 μL aliquot of 400 μM renin substrate (DABCYL-γ-[…]) in 192 μL assay buffer (50 mM BES, 150 mM NaCl, 0.25 mg/mL bovine serum albumin, pH7.0) was added to 4 μL of test compound in DMSO at various concentrations ranging from 10 μM to 1 nM final concentrations. Next, 100 μL of trypsin-activated recombinant human renin (final enzyme concentration of 0.2-2 nM) in assay buffer was added, and the solution was mixed by pipetting. The increase in fluorescence at 495 nm (excitation at 340 nm) is measured for 60-360 minutes at rt using a Perkin-Elmer Fusion microplate reader. The slope of a linear portion of the plot of fluorescence-increase as a function of time was then determined, and the rate was used for calculating percent inhibition in relation to uninhibited control. […] (Wang G. T. et al. Anal. Biochem. 1993, 210, 351; Nakamura, N. et al. J. Biochem. (Tokyo) 1991, 109, 741; Murakami, K. et al. Anal Biochem. 1981, 110, 232).

[2] = molecular target: T2, plasma renin activity (PRA) (Homo sapiens, UniProt P00797); assay: In vitro plasma renin activity (PRA) in human plasma, angiotensin I radioimmunoassay; assay type: biochemical; conditions: pooled human plasma, 37° C., 90 min, IC50 of plasma renin activity
T2 construct: 87.3% of pooled mixed-gender human plasma stabilized with EDTA; from tissue; host or cells: pooled mixed-gender human plasma (EDTA)
T2 sequence (P00797 67-406): T1 sequence (P00797 67-406)
Experimental: For plasma batches with low PRA (less than 1 ng/ml/hr) ˜2 pM of recombinant human renin was added to achieve PRA of 3-4 ng/ml/hr. The cleavage of endogenous angiotensinogen in plasma was carried out at 37° C. for 90 min and the product angiotensin I was measured by competitive radioimmunoassay using DiaSorin PRA kit.

[3] = Plasma concentration in transgenic rats after oral administration; assay type: in vivo, rat; conditions: 10 mg/kg, FIG. 2
Experimental: FIG. 2 is a plot showing mean plasma concentrations of compound 6a in transgenic rats over time following oral administration of 10 mg/kg of compound 6a.
(§1) Experiments were conducted in 6-week-old double transgenic rats (dTGRs). The model has been described in detail earlier. […] The human angiotensinogen construct made up the entire human angiotensinogen gene (5 exons and 4 introns), with 1.3 kB of 5′-flanking and 2.4 kB of 3′-flanking sequences. The rats were purchased from RCC Ltd (Füillinsdorf, Switzerland). Radio telemetry transmitters were surgically implanted at 4 weeks of age. The telemetry system provided 24-h recordings of systolic, mean, diastolic arterial pressure (SAP, MAP, DAP, respectively) and heart rate (HR). Beginning on day 42, animals were transferred to telemetry cages. A 24 h telemetry reading was obtained. Rats were then dosed orally on the following 4 consecutive days (days 43-46). The rats were monitored continuously and allowed free access to standard 0.3%-sodium rat chow and drinking water.

[4] = test system: double transgenic rats engineered to express human renin and human angiotensinogen; assay: In vivo efficacy in double transgenic rats, telemetry blood pressure; design: species or system rat; conditions: oral, 10 mg/kg, FIG. 3
Experimental: Double Transgenic Rat: The efficacy of the renin inhibitor 6a was evaluated in vivo in double transgenic rats engineered to express human renin and human angiotensinogen (Bohlender J, Fukamizu A, Lippoldt A, Nomura T, Dietz R, Menard J, Murakami K, Luft F C, Ganten D. High human renin hypertension in transgenic rats. Hypertension 1997, 29, 428-434).
as §1

IC50 [1]	IC50 [2]	oral bioavailability and metabolic stability [3]	plasma concentration of compound following oral administration [3]	SMILES	effect on mean arterial blood pressure [4]
< 10 nM	< 10 nM	–	–	CNC[C@H](C[C@H]1CCCOC1)NC(=O)N1CCC[C@@H]([C@@H](OCCNC(=O)OC)c2ccc(F)c(Cl)c2)C1 [Compound 8, methyl 2-((R)-(3-chloro-4-fluorophenyl)((R)-1-((S)-1-(methylamino)-3-((R)-tetrahydro-2H-pyran-3-yl)propan-2-ylcarbamoyl)piperidin-3-yl)methoxy)-ethylcarbamate]	–
< 10 nM	< 20 nM	–	–	CNC[C@H](C[C@@H]1CCCOC1)NC(=O)N1CCC[C@@H]([C@@H](OCCNC(=O)OC)c2cccc(F)c2)C1 [Compound 2b, methyl 2-((R)-(3-fluorophenyl)((R)-1-((S)-1-(methylamino)-3-((S)-tetrahydro-2H-pyran-3-yl)propan-2-ylcarbamoyl)piperidin-3-yl)methoxy)ethylcarbamate]	–
< 10 nM	< 10 nM	–	–	CNC[C@H](C[C@H]1CCCOC1)NC(=O)N1CCC[C@@H]([C@@H](OCCNC(=O)OC)c2cc(F)ccc2C)C1 [Compound 5a, methyl 2-((R)-(5-fluoro-2-methylphenyl)((R)-1-((S)-1-(methylamino)-3-((R)-tetrahydro-2H-pyran-3-yl)propan-2-ylcarbamoyl)piperidin-3-yl)methoxy)-ethylcarbamate]	–
< 1 nM	< 1 nM	–	–	CNC[C@H](C[C@H]1CCCOC1)NC(=O)N1CCC[C@@H]([C@@H](OCCNC(=O)OC)c2cc(F)cc(Cl)c2)C1 [Compound 3a, methyl 2-((R)-(3-chloro-5-fluorophenyl)((R)-1-((S)-1-(methylamino)-3-((R)-tetrahydro-2H-pyran-3-yl)propan-2-ylcarbamoyl)piperidin-3-yl)methoxy)ethylcarbamate]	–
< 10 nM	< 10 nM	–	–	CNC[C@H](C[C@@H]1CCCOC1)NC(=O)N1CCC[C@@H]([C@@H](OCCNC(=O)OC)c2cccc(Cl)c2)C1 [Compound 6b, methyl 2-((R)-(3-chlorophenyl)((R)-1-((S)-1-(methylamino)-3-((S)-tetrahydro-2H-pyran-3-yl)propan-2-ylcarbamoyl)piperidin-3-yl)methoxy)ethylcarbamate]	–
< 10 nM	< 10 nM	–	–	CNC[C@H](C[C@H]1CCCOC1)NC(=O)N1CCC[C@@H]([C@@H](OCCNC(=O)OC)c2cccc(F)c2)C1 [Compound 2a, methyl 2-((R)-(3-fluorophenyl)((R)-1-((S)-1-(methylamino)-3-((R)-tetrahydro-2H-pyran-3-yl)propan-2-ylcarbamoyl)piperidin-3-yl)methoxy)ethylcarbamate]	–
< 10 nM	< 10 nM	–	–	CNC[C@H](C[C@H]1CCCOC1)NC(=O)N1CCC[C@@H]([C@@H](OCCNC(=O)OC)c2cc(F)cc(F)c2)C1 [Compound 4a, methyl 2-((R)-(3,5-difluorophenyl)((R)-1-((S)-1-(methylamino)-3-((R)-tetrahydro-2H-pyran-3-yl)propan-2-ylcarbamoyl)piperidin-3-yl)methoxy)ethylcarbamate]	–
< 10 nM	< 50 nM	–	–	CCOC(=O)NCCO[C@@H](c1cc(F)cc(Cl)c1)[C@@H]1CCCN(C(=O)N[C@H](CNC)C[C@H]2CCCOC2)C1 [Compound 9, ethyl 2-((R)-(3-chloro-5-fluorophenyl)((R)-1-((S)-1-(methylamino)-3-((R)-tetrahydro-2H-pyran-3-yl)propan-2-ylcarbamoyl)piperidin-3-yl)methoxy)-ethylcarbamate]	–
< 10 nM	< 10 nM	–	–	CNC[C@H](CC1CCCOC1)NC(=O)N1CCC[C@@H]([C@@H](OCCNC(=O)OC)c2cccc(C)c2)C1 (stereo partly drawn) [Compound 1, methyl 2-((R)-((R)-1-((S)-1-(methylamino)-3-(tetrahydro-2H-pyran-3-yl)propan-2-ylcarbamoyl)piperidin-3-yl)(m-tolyl)methoxy)ethylcarbamate]	–
< 20 nM	< 50 nM	–	–	CNC[C@H](C[C@H]1CCCOC1)NC(=O)N1CCC[C@@H]([C@@H](OCCNC(=O)OC)c2ccccc2)C1 [Compound 7, methyl 2-((R)-((R)-1-((S)-1-(methylamino)-3-((R)-tetrahydro-2H-pyran-3-yl)propan-2-ylcarbamoyl)piperidin-3-yl)(phenyl)methoxy)ethylcarbamate]	–
< 20 nM	< 50 nM	–	–	CNC[C@H](C[C@@H]1CCCOC1)NC(=O)N1CCC[C@@H]([C@@H](OCCNC(=O)OC)c2cc(F)ccc2C)C1 [Compound 5b, methyl 2-((R)-(5-fluoro-2-methylphenyl)((R)-1-((S)-1-(methylamino)-3-((S)-tetrahydro-2H-pyran-3-yl)propan-2-ylcarbamoyl)piperidin-3-yl)methoxy)-ethylcarbamate]	–
< 1 nM	< 1 nM	excellent	remains relatively high over 24 h period	CNC[C@H](C[C@H]1CCCOC1)NC(=O)N1CCC[C@@H]([C@@H](OCCNC(=O)OC)c2cccc(Cl)c2)C1 [Compound 6a, methyl 2-((R)-(3-chlorophenyl)((R)-1-((S)-1-(methylamino)-3-((R)-tetrahydro-2H-pyran-3-yl)propan-2-ylcarbamoyl)piperidin-3-yl)methoxy)ethylcarbamate]	significant effect in lowering blood pressures
< 10 nM	< 10 nM	–	–	CNC[C@H](C[C@@H]1CCCOC1)NC(=O)N1CCC[C@@H]([C@@H](OCCNC(=O)OC)c2cc(F)cc(Cl)c2)C1 [Compound 3b, Methyl 2-((R)-(3-chloro-5-fluorophenyl)((R)-1-((S)-1-(methylamino)-3-((S)-tetrahydro-2H-pyran-3-yl)propan-2-ylcarbamoyl)piperidin-3-yl)methoxy)ethylcarbamate]	–
< 10 nM	< 1 nM	–	–	CNC[C@H](C[C@H]1CCCOC1)NC(=O)N1CCC[C@@H]([C@@H](OCCNC(=O)OC)c2cc(Cl)ccc2C)C1 [Compound 10, methyl 2-((R)-(5-chloro-2-methylphenyl)((R)-1-((S)-1-(methylamino)-3-((R)-tetrahydro-2H-pyran-3-yl)propan-2-ylcarbamoyl)piperidin-3-yl)methoxy)-ethylcarbamate]	–
< 10 nM	< 50 nM	–	–	CNC[C@H](C[C@@H]1CCCOC1)NC(=O)N1CCC[C@@H]([C@@H](OCCNC(=O)OC)c2cc(F)cc(F)c2)C1 [Compound 4b, methyl 2-((R)-(3,5-difluorophenyl)((R)-1-((S)-1-(methylamino)-3-((S)-tetrahydro-2H-pyran-3-yl)propan-2-ylcarbamoyl)piperidin-3-yl)methoxy)ethylcarbamate]	–

Source: patent US20090318501A1, “Piperidine derivatives as renin inhibitors” (priority 2006, published 2009)
